{"source": "patent US20260262643A1", "about": "“HERBICIDAL BENZOXAZINES” (FMC CORPORATION, priority 2022, published 2026)", "key": {"ragweed [1]": {"system": "ragweed", "experiment": "Test C postemergence", "type": "in vivo, Ambrosia artemisiifolia", "details": "10 days", "how_it_was_run": "(§1)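 Seeds in loam–sand blend received preemergence directed soil spray of test chemicals in non-phytotoxic solvent with surfactant; postemergence treatment was applied at one- to two-leaf stage (2–10 cm). After 10 days in greenhouse, injury rated visually versus untreated controls, 0 (no effect) to 100 (complete control).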"}, "oat, wild [2]": {"system": "oat, wild", "experiment": "Test C postemergence", "type": "in vivo, Avena fatua", "details": "10 days", "how_it_was_run": "as §1"}, "corn [3]": {"system": "corn", "experiment": "Test C postemergence", "type": "in vivo, Zea mays", "details": "10 days", "how_it_was_run": "as §1"}, "ducksalad": {"system": "ducksalad", "experiment": "Test D flooded paddy test", "type": "in vivo, Heteranthera limosa", "details": "250 g ai/ha, applied to paddy water, visual rating after 13 to 14 days, scale 0 to 100 (0 no effect, 100 complete control)", "how_it_was_run": "(§2)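 At the 2-leaf stage, floodwater 3 cm deep received the test compound; that depth persisted throughout. Plants scored visually 13 to 14 days on, 0 (no effect) to 100 (complete control), dash indicating no result.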"}, "kochia [4]": {"system": "kochia", "experiment": "Test C preemergence", "type": "in vivo, Bassia scoparia", "details": "0 to 100 scale (0 no effect, 100 complete control)", "how_it_was_run": "as §1"}, "ryegrass, Italian [5]": {"system": "ryegrass, Italian", "experiment": "Test C preemergence", "type": "in vivo, Lolium multiflorum", "details": "0 to 100 scale (0 no effect, 100 complete control)", "how_it_was_run": "as §1"}, "blackgrass [6]": {"system": "blackgrass", "experiment": "Test C postemergence", "type": "in vivo, Alopecurus myosuroides", "details": "10 days", "how_it_was_run": "as §1"}, "horseweed": {"system": "horseweed", "experiment": "Test C postemergence", "type": "in vivo, Erigeron canadensis", "details": "10 days", "how_it_was_run": "as §1"}, "barnyardgrass [7]": {"system": "barnyardgrass", "experiment": "Test C postemergence", "type": "in vivo, Echinochloa crusgalli", "details": "10 days", "how_it_was_run": "as §1"}, "sedge, umbrella": {"system": "sedge, umbrella", "experiment": "Test D flooded paddy test", "type": "in vivo, Cyperus difformis", "details": "250 g ai/ha, applied to paddy water, visual rating after 13 to 14 days, scale 0 to 100 (0 no effect, 100 complete control)", "how_it_was_run": "as §2"}, "green foxtail": {"system": "green foxtail", "experiment": "Test C preemergence", "type": "in vivo, Setaria viridis", "details": "0 to 100 scale (0 no effect, 100 complete control)", "how_it_was_run": "as §1"}, "corn [8]": {"system": "corn", "experiment": "Test C preemergence", "type": "in vivo, Zea mays", "details": "0 to 100 scale (0 no effect, 100 complete control)", "how_it_was_run": "as §1"}, "pigweed, palmer [9]": {"system": "pigweed, palmer", "experiment": "Test C postemergence", "type": "in vivo, Amaranthus palmeri", "details": "10 days", "how_it_was_run": "as §1"}, "galium": {"system": "galium", "experiment": "Test C postemergence", "type": "in vivo, Galium aparine", "details": "10 days", "how_it_was_run": "as §1"}, "soybean [10]": {"system": "soybean", "experiment": "Test C postemergence", "type": "in vivo, Glycine max", "details": "10 days", "how_it_was_run": "as §1"}, "soybean [11]": {"system": "soybean", "experiment": "Test C preemergence", "type": "in vivo, Glycine max", "details": "0 to 100 scale (0 no effect, 100 complete control)", "how_it_was_run": "as §1"}, "pigweed, palmer [12]": {"system": "pigweed, palmer", "experiment": "Test C preemergence", "type": "in vivo, Amaranthus palmeri", "details": "0 to 100 scale (0 no effect, 100 complete control)", "how_it_was_run": "as §1"}, "blackgrass [13]": {"system": "blackgrass", "experiment": "Test C preemergence", "type": "in vivo, Alopecurus myosuroides", "details": "0 to 100 scale (0 no effect, 100 complete control)", "how_it_was_run": "as §1"}, "wheat [14]": {"system": "wheat", "experiment": "Test C preemergence", "type": "in vivo, Triticum aestivum", "details": "0 to 100 scale (0 no effect, 100 complete control)", "how_it_was_run": "as §1"}, "wheat [15]": {"system": "wheat", "experiment": "Test C postemergence", "type": "in vivo, Triticum aestivum", "details": "10 days", "how_it_was_run": "as §1"}, "ryegrass, Italian [16]": {"system": "ryegrass, Italian", "experiment": "Test C postemergence", "type": "in vivo, Lolium multiflorum", "details": "10 days", "how_it_was_run": "as §1"}, "rice": {"system": "rice", "experiment": "Test D flooded paddy test", "type": "in vivo, Oryza sativa", "details": "250 g ai/ha, applied to paddy water, visual rating after 13 to 14 days, scale 0 to 100 (0 no effect, 100 complete control)", "how_it_was_run": "as §2"}, "ragweed [17]": {"system": "ragweed", "experiment": "Test C preemergence", "type": "in vivo, Ambrosia artemisiifolia", "details": "0 to 100 scale (0 no effect, 100 complete control)", "how_it_was_run": "as §1"}, "kochia [18]": {"system": "kochia", "experiment": "Test C postemergence", "type": "in vivo, Bassia scoparia", "details": "10 days", "how_it_was_run": "as §1"}, "oat, wild [19]": {"system": "oat, wild", "experiment": "Test C preemergence", "type": "in vivo, Avena fatua", "details": "0 to 100 scale (0 no effect, 100 complete control)", "how_it_was_run": "as §1"}, "barnyardgrass [20]": {"system": "barnyardgrass", "experiment": "Test D flooded paddy test", "type": "in vivo, Echinochloa crus-galli", "details": "250 g ai/ha, applied to paddy water, visual rating after 13 to 14 days, scale 0 to 100 (0 no effect, 100 complete control)", "how_it_was_run": "as §2"}, "barnyardgrass [21]": {"system": "barnyardgrass", "experiment": "Test C preemergence", "type": "in vivo, Echinochloa crusgalli", "details": "0 to 100 scale (0 no effect, 100 complete control)", "how_it_was_run": "as §1"}, "[22]": {"details": "125 g ai/ha, postemergence, 0 to 100 scale, 0 no effect, 100 complete control"}, "[23]": {"details": "Postemergence, 500 g ai/ha, visual 0 to 100 scale (0 no effect, 100 complete control)"}, "[24]": {"details": "Preemergence, 500 g ai/ha, visual rating after 10 days"}, "[25]": {"details": "Test C, preemergence, 125 g ai/ha"}}}
{"smiles": "COC[C@H]1CN(C(=O)c2cc(-n3cnc(C4CCC4)n3)ccc2OC)c2cccc(Cl)c2O1", "note": "[Compound 236]", "values": [{"measurement": "Plant response rating, Ragweed", "setting": "ragweed [1]; [22]", "result": 80}, {"measurement": "Plant response rating, Ragweed", "setting": "ragweed [1]; [23]", "result": 90}, {"measurement": "Plant response rating, Oat, Wild", "setting": "oat, wild [2]; [22]", "result": 10}, {"measurement": "Plant response rating, Oat, Wild", "setting": "oat, wild [2]; [23]", "result": 40}, {"measurement": "Plant response rating, Corn", "setting": "corn [3]; [22]", "result": 30}, {"measurement": "Plant response rating, Corn", "setting": "corn [3]; [23]", "result": 80}, {"measurement": "Plant response rating, Ducksalad (Flood)", "setting": "ducksalad", "result": 75}, {"measurement": "Plant response rating, Kochia", "setting": "kochia [4]; [24]", "result": 90}, {"measurement": "Kochia plant response rating", "setting": "kochia [4]; [25]", "result": 40}, {"measurement": "Plant response rating, Ryegrass, Italian", "setting": "ryegrass, Italian [5]; [24]", "result": 50}, {"measurement": "Ryegrass, Italian plant response rating", "setting": "ryegrass, Italian [5]; [25]", "result": 50}, {"measurement": "Plant response rating, Blackgrass", "setting": "blackgrass [6]; [22]", "result": 20}, {"measurement": "Plant response rating, Blackgrass", "setting": "blackgrass [6]; [23]", "result": 90}, {"measurement": "Plant response rating, Horseweed", "setting": "horseweed; [22]", "result": 70}, {"measurement": "Plant response rating, Horseweed", "setting": "horseweed; [23]", "result": 70}, {"measurement": "Plant response rating, Barnyardgrass", "setting": "barnyardgrass [7]; [22]", "result": 40}, {"measurement": "Plant response rating, Barnyardgrass", "setting": "barnyardgrass [7]; [23]", "result": 90}, {"measurement": "Plant response rating, Sedge, Umbrella (Flood)", "setting": "sedge, umbrella", "result": 95}, {"measurement": "Plant response rating, Foxtail, Green", "setting": "green foxtail; [24]", "result": 100}, {"measurement": "Foxtail, Green plant response rating", "setting": "green foxtail; [25]", "result": 90}, {"measurement": "Plant response rating, Corn", "setting": "corn [8]; [24]", "result": 0}, {"measurement": "Corn plant response rating", "setting": "corn [8]; [25]", "result": 0}, {"measurement": "Plant response rating, Pigweed, Palmer", "setting": "pigweed, palmer [9]; [22]", "result": 90}, {"measurement": "Plant response rating, Pigweed, Palmer", "setting": "pigweed, palmer [9]; [23]", "result": 90}, {"measurement": "Plant response rating, Galium", "setting": "galium; [22]", "result": 100}, {"measurement": "Plant response rating, Galium", "setting": "galium; [23]", "result": 100}, {"measurement": "Plant response rating, Soybean", "setting": "soybean [10]; [22]", "result": 100}, {"measurement": "Plant response rating, Soybean", "setting": "soybean [10]; [23]", "result": 100}, {"measurement": "Plant response rating, Soybean", "setting": "soybean [11]; [24]", "result": 70}, {"measurement": "Soybean plant response rating", "setting": "soybean [11]; [25]", "result": 40}, {"measurement": "Plant response rating, Pigweed, Palmer", "setting": "pigweed, palmer [12]; [24]", "result": 100}, {"measurement": "Pigweed, Palmer plant response rating", "setting": "pigweed, palmer [12]; [25]", "result": 80}, {"measurement": "Plant response rating, Blackgrass", "setting": "blackgrass [13]; [24]", "result": 10}, {"measurement": "Blackgrass plant response rating", "setting": "blackgrass [13]; [25]", "result": 0}, {"measurement": "Plant response rating, Wheat", "setting": "wheat [14]; [24]", "result": 10}, {"measurement": "Wheat plant response rating", "setting": "wheat [14]; [25]", "result": 0}, {"measurement": "Plant response rating, Wheat", "setting": "wheat [15]; [22]", "result": 20}, {"measurement": "Plant response rating, Wheat", "setting": "wheat [15]; [23]", "result": 30}, {"measurement": "Plant response rating, Ryegrass, Italian", "setting": "ryegrass, Italian [16]; [22]", "result": 60}, {"measurement": "Plant response rating, Ryegrass, Italian", "setting": "ryegrass, Italian [16]; [23]", "result": 90}, {"measurement": "Plant response rating, Rice (Flood)", "setting": "rice", "result": 0}, {"measurement": "Plant response rating, Ragweed", "setting": "ragweed [17]; [24]", "result": 80}, {"measurement": "Ragweed plant response rating", "setting": "ragweed [17]; [25]", "result": 20}, {"measurement": "Plant response rating, Kochia", "setting": "kochia [18]; [22]", "result": 90}, {"measurement": "Plant response rating, Kochia", "setting": "kochia [18]; [23]", "result": 90}, {"measurement": "Plant response rating, Oat, Wild", "setting": "oat, wild [19]; [24]", "result": 30}, {"measurement": "Oat, Wild plant response rating", "setting": "oat, wild [19]; [25]", "result": 10}, {"measurement": "Plant response rating, Barnyardgrass (Flood)", "setting": "barnyardgrass [20]", "result": 0}, {"measurement": "Plant response rating, Barnyardgrass", "setting": "barnyardgrass [21]; [24]", "result": 80}, {"measurement": "Barnyardgrass plant response rating", "setting": "barnyardgrass [21]; [25]", "result": 20}]}
